# Reference: PMC6179046, “Discovery of novel 1,3-diaryltriazene sulfonamides as carbonic anhydrase I, II, VII, and IX inhibitors” (Journal of Enzyme Inhibition and Medicinal Chemistry, 2018)
# Key:
# Assay in all cases: stopped-flow CO2 hydrase assay
# Assay type in all cases: biochemical
# hCA I = target: T1, hCA I (Homo sapiens, UniProt P00915)
# T1 construct: gene CA1; recombinant, obtained as reported earlier; cytosolic isoform
# From the text: stopped-flow CO2 hydrase assay on hCA I
# hCA VII = target: T2, hCA VII (Homo sapiens, UniProt P43166)
# T2 construct: gene CA7; recombinant, obtained as reported earlier; cytosolic isoform
# From the text: stopped-flow CO2 hydrase assay on hCA VII
# hCA II = target: T3, hCA II (Homo sapiens, UniProt P00918)
# T3 construct: gene CA2; recombinant, obtained as reported earlier; cytosolic isoform
# From the text: stopped-flow CO2 hydrase assay on hCA II
# hCA IX = target: T4, hCA IX (Homo sapiens, UniProt Q16790)
# T4 construct: gene CA9; recombinant, obtained as reported earlier
# From the text: stopped-flow CO2 hydrase assay on hCA IX
# T2 sequence (P43166 whole entry, canonical isoform): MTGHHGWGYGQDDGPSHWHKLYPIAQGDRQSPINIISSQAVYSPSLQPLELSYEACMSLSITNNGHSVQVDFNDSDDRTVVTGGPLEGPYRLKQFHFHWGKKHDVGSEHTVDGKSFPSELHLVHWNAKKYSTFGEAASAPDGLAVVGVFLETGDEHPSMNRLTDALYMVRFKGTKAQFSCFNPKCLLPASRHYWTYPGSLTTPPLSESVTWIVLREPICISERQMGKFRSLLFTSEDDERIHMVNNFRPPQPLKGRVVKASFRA
# T1 sequence (P00915 2-261): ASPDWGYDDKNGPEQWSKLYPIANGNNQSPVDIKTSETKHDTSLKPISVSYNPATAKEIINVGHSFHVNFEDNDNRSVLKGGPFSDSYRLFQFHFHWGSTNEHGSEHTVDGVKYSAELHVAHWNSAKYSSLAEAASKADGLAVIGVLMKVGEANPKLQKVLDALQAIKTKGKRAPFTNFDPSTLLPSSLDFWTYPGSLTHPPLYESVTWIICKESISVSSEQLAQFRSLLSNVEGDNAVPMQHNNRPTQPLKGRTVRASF
SMILES,Ki (hCA I) [nM],Ki (hCA VII) [nM],Ki (hCA II) [nM],Ki (hCA IX) [nM]
"NS(=O)(=O)c1cccc(/N=N/Nc2ccc(F)cc2)c1 [4a, 3–(3-(4-fluorophenyl)triaz-1-en-1-yl) benzenesulfonamide]",365 ± 15,9480 ± 348,858 ± 43,8050 ± 126
"NS(=O)(=O)c1cccc(N/N=N/c2ccc(C(=O)O)cc2)c1 [4b, 4–(3-(3-sulfamoylphenyl)triaz-2-en-1-yl) benzoic acide]",92.3 ± 7.1,967 ± 54,68.7 ± 5.1,835 ± 47
"N#Cc1ccc(NN=Nc2cccc(S(N)(=O)=O)c2)cc1 [4c, 3–(3-(4-cyanophenyl)triaz-1-en-1-yl) benzenesulfonamide]",501 ± 31,7900 ± 456,605 ± 34,8960 ± 348
"CCCCOc1ccc(NN=Nc2cccc(S(N)(=O)=O)c2)cc1 [4d, 3–(3-(4-butoxyphenyl)triaz-1-en-1-yl) benzenesulfonamide]",618 ± 40,5870 ± 314,519 ± 39,7430 ± 216
"COc1ccc(/N=N/Nc2cccc(S(N)(=O)=O)c2)cc1 [4e, 3–(3-(4-methoxyphenyl)triaz-1-en-1-yl) benzenesulfonamide]",416 ± 32,5760 ± 324,877 ± 62,7230 ± 159
"Cc1cc(C)cc(NN=Nc2cccc(S(N)(=O)=O)c2)c1 [4f, 3–(3-(3,5-dimethylphenyl)triaz-1-en-1-yl)benzenesulfonamide]",277 ± 18,15.6 ± 0.9,4.3 ± 0.2,50.8 ± 3.6
"COc1ccc(/N=N/Nc2cccc(S(N)(=O)=O)c2)cc1OC [4g, 3–(3-(3,4-dimethoxyphenyl)triaz-1-en-1-yl)benzenesulfonamide]",3850 ± 179,2560 ± 129,6460 ± 310,84.9 ± 4.5
"NS(=O)(=O)c1cccc(N=NNc2ccc(Cl)c(Cl)c2)c1 [4h, 3–(3-(3,4-dichlorophenyl)triaz-1-en-1-yl)benzenesulfonamide]",8370 ± 601,7830 ± 418,9190 ± 504,9270 ± 451
